The MIC is the lowest concentration found to suppress growth. A low value points to inhibition by little substance.

This is an account of results in US20210183469A9, “COMPUTATIONAL PLATFORM FOR IN SILICO COMBINATORIAL SEQUENCE SPACE EXPLORATION AND ARTIFICIAL EVOLUTION OF PEPTIDES” (priority 2018, published 2021).

One series deals with human erythrocytes. The series can be described thus: Hemolytic assay. The settings on record: 1 h at 37° C., 100% of hemolysis was not observed.
A further series can be described thus: in vitro. The note with it: human.
Another series has as its system HEK-293 cells. Description: Cytotoxicity, MTT-based microassay. The settings on record: 72 h, read-out: Active Concentration (inhibitory concentration 50, IC50). The class given is cell-based, human. The procedure:
HEK-293 cells were cultured in DMEM medium, and incubated at 37° C. in a humidified atmosphere of 5% CO2. Cell viability was quantified after peptide incubation using a methylthiazolyldiphenyl-tetrazolium bromide (MTT)-based microassay (Riss et al., (eds. Sittampalam, G. et al.) (Bethesda (Md.), 2004)). […] Then, 10 μl of MTT (5 mg·mL^−1 in PBS) was added to each well and the cells were further incubated for 4 h in the dark. The formazan crystals formed by mitochondrial reductases in intact cells are insoluble in aqueous solutions and precipitate. Formazan crystals were dissolved using a solubilization solution (40% dimethylformamide in 2% glacial acetic acid, 16% sodium dodecyl sulfate, pH 4.7) followed by 1 h incubation at 37° C. under shaking (150 rpm). Finally, the absorbance of the resuspended formazan was measured at 570 nm. Data were analyzed with GraphPad Prism® 5.0 software to determine the inhibitory concentration 50 (IC50), which corresponds to the peptide concentration producing 50% cell death. Results were expressed as the mean of three independent experiments performed in triplicate.

Series [1] relates to Escherichia coli ATCC 25922. The series can be described thus: MIC, two-fold serial dilution in microtitre plates. The class given is cell-based. The note with it: average of three independent experiments. As for the experimental part:
(§1) After 18 h incubation at 37° C.

Series [2] has as its system Acinetobacter baumannii ATCC 19606. Description: MIC, two-fold serial dilution in microtitre plates. The format is cell-based. The procedure: as §1
For series [3], the system named is Listeria ivanovii Li4pVS2.
Experimental: Staphylococcus aureus ATCC 25923, Enterococcus faecalis ATCC 29212, Escherichia coli ATCC 25922, Pseudomonas aeruginosa ATCC 27853, Acinetobacter baumannii ATCC 19606 and Klebsiella pneumoniae ATCC 13883 were cultured in Lysogeny Broth (LB). The bacteria Streptococcus pyogenes ATCC 19615 and Listeria ivanovii Li 4pVS2 were cultured in Brain Heart Infusion (BHI) broth, whereas Candida species (C. albicans ATCC 90028 and C. parapsilosis ATCC 22019) were cultured in Yeast Peptone Dextrose (YPD) medium. Logarithmic phase culture of bacteria and yeasts were centrifuged and suspended in MH (Mueller Hinton) broth to an A630 of 0.01 (˜10^6 CFU·mL^−1), except for S. pyogenes, L. ivanovii and E. faecalis that were suspended in their respective growth medium. […] After 18 h incubation at 37° C. (30° C. for yeasts), the antimicrobial susceptibility was monitored by measuring the change in A630 using a microplate reader (UVM 340, Asys Hitech). […] Each experiment was performed in triplicate with positive (0.7% formaldehyde) and negative (without peptide) inhibition controls.
A further series concerns E. coli ATCC 25922. The series can be described thus: SYTOX Green uptake assay (cytoplasmic membrane permeabilization). The format is cell-based, Escherichia coli. The settings on record: 5 μM, positive control. As for the experimental part:
The guavanin 2-induced permeabilization of the bacterial cytoplasmic plasma membrane of E. coli ATCC 25922 was determined by fluorometric measurement of SYTOX green (SG) influx (Thevissen et al., Appl. Environ. Microbiol. 1999 December; 65(12): 5451-8). SG is a high-affinity nucleic acid dye that is impermeant to live cells. When the cell membrane is damaged, this dye penetrates into the cell and binds to intracellular DNA, leading to an increase in fluorescence. For SG uptake assay, exponentially growing bacteria (6×10^5 CFU·mL^−1) were re-suspended in PBS after centrifugation (1000×g, 10 min, 4° C.) and washing steps. 792 μL of the bacterial suspension was pre-incubated with 8 μL of 100 μM SG during 30 min at 37° C. in the dark. […] Three independent experiments were performed and results correspond to a representative experiment with negative (PBS) and positive (melittin) controls.

For another series, the system named is E. coli (ATCC 25922). The series can be described thus: Membrane polarization assay with DiSC3(5). The format is cell-based, Escherichia coli. The settings on record: melittin positive control. As for the experimental part: When the cytoplasmic membrane is intact, the fluorescent probe DiSC3(5) accumulates into the cytoplasmic membrane and then aggregates, causing self-quenching of the fluorescence. In the presence of a membrane-depolarizing agent, DiSC3(5) is released into the medium, leading to an increase in fluorescence that can be monitored over time. The experiment was performed as previously described (André et al., ACS Chem. Biol. 2015 Jul. 30; 10(10): 2257-66). Briefly, exponentially growing bacteria were centrifuged (1000×g, 10 min, 4° C.), washed with PBS and re-suspended in the same buffer to an A630 of 0.1; then 700 µL of bacteria were pre-incubated with 1 μM DiSC3(5) in the dark during 10 min at 37° C., and then 100 μL of 1 mM KCl were added in order to equilibrate the cytoplasmic and external K+ concentrations. […] Three independent experiments were performed and results correspond to a representative experiment with negative (PBS) and positive (melittin) controls.

Series [4] deals with bioluminescent engineered P. aeruginosa strain H1001. Description: Antimicrobial activity by bioluminescence assay (SPOT-synthesized peptides). The class given is cell-based, Pseudomonas aeruginosa. The note with it: SPOT-synthesized unpurified crude peptide (~70% purity). As for the experimental part: A peptide array composed of 20 peptides (15 guavanins, 4 Pg-AMP1 fragments and magainin 2) was designed and synthesized by Kinexus Bioinformatics Corporation (Vancouver, BC). Peptides were produced in a standard mass of 80 μg by using cellulose support in SPOT technology, as previously described by Winkler et al. Methods Mol. Biol. 2009; 570: 157-74. The crude synthetic peptides were obtained from cellulose membrane discs that had already been treated with ammonia gas to release the peptides from the membrane. Peptides were then dissolved overnight in distilled water and subsequently evaluated for their biological activities, as described below.
The antimicrobial activity of the synthesized peptides was evaluated against an engineered luminescent Pseudomonas aeruginosa H1001 strain in 96-well microplates, as described previously with a few modifications (Hilpert & Hancock, Nat. Protoc. 2007; 2(7): 1652-60). […] Luminescence was measured on a Tecan […]luor Plus Microplate Reader (Tecan US, Morrisville, N.C.). The antimicrobial activity was evaluated by the ability of the peptides to reduce the luminescence of P. aeruginosa-lux strain compared to untreated cells. […]

No end group written: not given here.

Experimental for human erythrocytes: (§2) Fresh human venous blood was collected from volunteers in Vacutainer collection tubes containing sodium heparin as an anticoagulant (BD Biosciences, Franklin Lakes, N.J.). The blood was centrifuged at 1500 rpm and the serum was removed and the blood cells were replaced and washed 3 times with the same volume of sterile NaCl 0.85% solution. Concentrated red blood cells were diluted tenfold in NaCl 0.85% solution and then exposed at two-fold dilutions of peptides for 1 h at 37° C., at identical concentrations used for antimicrobial assays, in the ratio of 1:1 (v/v), achieving a final volume of 100 uL. The assay was carried out in 96-well polypropylene microtiter plates. The positive control wells contained 1% of Triton X-100, representing 100% cell lysis, and negative control wells contained sterile saline. Hemoglobin release was monitored chromogenically at 546 nm using a microplate reader.
Experimental for in vitro: as §2

RKLVECYERAERDANRSGRR-NH2 [Guavanin 15]: the Hemolysis with human erythrocytes was >200 µg/mL.

As to RYLMEYAEQAKRDAKRAYRR-NH2 [Guavanin 10], the Hemolysis with human erythrocytes was >200 µg/mL.

RQYMRQIEQALRYGYRISRR-NH2 [Guavanin 2]: the CC50 at 1 h in the series “in vitro” was > 200 µM. For the same compound, the IC50 in the series on HEK-293 cells was > 200 µM. Also, in the series on human erythrocytes, the Hemolysis was >200 µg/mL. The results for the “Active Concentration (MIC)” value in series [1], in series [2] and in series [3] were 6.25 µM, 6.25 µM and 50 µM, respectively.

Take RRYMECYEQAERYFRRFGRR-NH2 [Guavanin 13]: the Hemolysis with human erythrocytes is >200 µg/mL.

As for RKLMEMYEEAFRYFNRISRR-NH2 [Guavanin 5], the Hemolysis with human erythrocytes is >200 µg/mL.

Take RQLMELIEQAERYGNRFYRR-NH2 [Guavanin 11]: the Hemolysis with human erythrocytes is >200 µg/mL.

With RKYMRQYEEAIRDGNRSIRR-NH2 [Guavanin 3], the Hemolysis in the series on human erythrocytes was >200 µg/mL.

For the compound `CC[C@H](C)[C@H](NC(=O)CN)C(=O)NCC(=O)N[C@@H](C)C(=O)N[C@H](C(=O)N[C@@H](CC(C)C)C(=O)N[C@@H](CCCCN)C(=O)N[C@H](C(=O)N[C@@H](CC(C)C)C(=O)N[C@H](C(=O)N[C@H](C(=O)NCC(=O)N[C@@H](CC(C)C)C(=O)N1CCC[C@H]1C(=O)N[C@@H](C)C(=O)N[C@@H](CC(C)C)C(=O)N[C@H](C(=O)N[C@@H](CO)C(=O)N[C@@H](Cc1c[nH]c2ccccc12)C(=O)N[C@H](C(=O)N[C@@H](CCCCN)C(=O)N[C@@H](CCCNC(=N)N)C(=O)N[C@@H](CCCCN)C(=O)N[C@@H](CCCNC(=N)N)C(=O)N[C@@H](CCC(N)=O)C(=O)N[C@@H](CCC(N)=O)C(N)=O)[C@@H](C)CC)[C@@H](C)CC)[C@@H](C)O)[C@@H](C)O)C(C)C)C(C)C` [melittin], the “SYTOX Green (SG) fluorescence signal” value in the series with E. coli ATCC 25922 was “rapid and maximal SG fluorescence signal”. Besides, the “DiSC3(5) fluorescence (membrane potential)” value with E. coli (ATCC 25922) is “rapid increase in the fluorescence signal”.

On to RQIYESIEQALRRGYRSYRR-NH2 [Guavanin 7], for which the Hemolysis with human erythrocytes is >200 µg/mL.

As to SSRMECYEQAERYGYGGYGG-NH2 [Fragment 1], in the series on human erythrocytes, the Hemolysis was >200 µg/mL.

Take RKLMELYEQAIRYGKRSYRR-NH2 [Guavanin 12]: the Hemolysis in the series with human erythrocytes was >200 µg/mL.

In the case of RSFMKCYEQASRYGNRILRR-NH2 [Guavanin 14], in the series with human erythrocytes, the Hemolysis was >200 µg/mL.

In the case of RSYYEAYERALRKGQRGIRR-NH2 [Guavanin 8], the Hemolysis in the series with human erythrocytes was >200 µg/mL.

Consider RYGYGGYGGGRYGGGYGSGR-NH2 [Fragment 2], for which the Hemolysis in the series on human erythrocytes was 100 µg/mL; in the series on human erythrocytes (listed as 2nd fragment), “hemolytic”.

Regarding RQYMRYLEQAERYVNRNLRR-NH2 [Guavanin 4], the Hemolysis in the series on human erythrocytes was >200 µg/mL.

On to `N=C(N)NCCC[C@H](NC(=O)CNC(=O)[C@H](CO)NC(=O)CNC(=O)[C@H](Cc1ccc(O)cc1)NC(=O)CNC(=O)CNC(=O)CNC(=O)[C@H](Cc1ccc(O)cc1)NC(=O)[C@H](CCCNC(=N)N)NC(=O)CNC(=O)CNC(=O)CNC(=O)[C@H](Cc1ccc(O)cc1)NC(=O)CNC(=O)CNC(=O)[C@H](Cc1ccc(O)cc1)NC(=O)CNC(=O)[C@@H](N)Cc1ccc(O)cc1)C(=O)NCC(N)=O` [Fragment 3], for which the Hemolysis in the series on human erythrocytes is >200 µg/mL.

In series [4], “H-GIGKFLHSAKKFGKAFVGEIMNS-OH [Magainin 2, reference compound]” displayed an MIC of 100 µg/mL. Besides, in the series with human erythrocytes, the Hemolysis was >200 µg/mL.

RSIMELYKQASRSFNRGIRR-NH2 [Guavanin 6]: in the series on human erythrocytes, the Hemolysis is >200 µg/mL.

For the compound RRGMKQYERISRDANRSYRR-NH2 [Guavanin 1], the Hemolysis with human erythrocytes is >200 µg/mL.

In the case of RAYMEALRQAERLGNRTARR-NH2 [Guavanin 9], in the series on human erythrocytes, the Hemolysis was >200 µg/mL.

For GQPVGQGVERSHDDNRNQPR-NH2 [Fragment 4], the Hemolysis in the series with human erythrocytes was >200 µg/mL.
